# Assays:
# [1] = test system: human normal hair papilla cells HFDPC-C; assay: Cell growth test on hair papilla cells (neutral red method, living cell number vs purified water control); format: cell-based; settings: for Hair papilla cell growth promoting action (in words): conclusion from Tables 1, 2 and 4; for Growth rate control = 100: 72 hours culture
# Procedure: First, human normal hair papilla cells HFDPC-C (manufactured by Takara Bio Inc.) were obtained, and the hair papilla cells were then seeded at 0.2×10^4/dish in each well of a 96-well plate for cell culture (manufactured by Corning Inc.). Further, 200 μL of a basal medium (trade name: “Follicle Dermal Papilla Cell Basal Medium”, manufactured by Takara Bio Inc.) containing a growth factor accompanying the obtained hair papilla cells was supplied to each well, and the hair papilla cells were precultured in each well at 37° C. for 24 hours.
# Next, the hair papilla cells were confirmed to be subconfluent, and the basal medium in each well was then replaced by 200 μL of another basal medium (trade name: “Follicle Dermal Papilla Cell Basal Medium”, manufactured by Takara Bio Inc.) free of the growth factor described above. In this way, hair papilla cells to be used for determining whether or not addition of the above-described samples promote cell growth were prepared.
# To the hair papilla cells prepared as described above, amino acids, combinations of amino acids, peptides and collagen peptide mixtures which are the samples described above were added at final concentrations shown in Tables 1 and 2, and the hair papilla cells were cultured in each well at 37° C. for 72 hours. Here, to one of the wells containing the hair papilla cells prepared as described above, 20 μL, of purified water was added, and as with other hair papilla cells, culturing was performed at 37° C. for 72 hours to prepare a control test sample (control). Thereafter, for each of the hair papilla cells in the wells containing purified water or the samples, the number of living cells (living cell number) was counted by a neutral red method. Here, the “neutral red method” is a method in which neutral red is added at a final concentration of 150 μg/mL into a well where cells are cultured, the cells are cultured for 20 minutes, and washed with PBS (phosphate buffer physiological saline), 200 μL of a 50 mass % ethanol solution containing 1 mass % acetic acid is added into the well as an extraction liquid, the mixture is stirred, and the absorbance of the well containing the neutral red is measured at a wavelength of 540 nm to measure the number of living cells in the well.
# The number of living cells of hair papilla cells in the well containing the sample with respect to the number of living cells of hair pallia cells in the well containing purified water (control test sample) was determined as a cell growth rate (%) to evaluate the hair papilla cell growth promoting action in the sample. Further, the cell growth rate (%) was subjected to statistical processing to evaluate significance of the hair papilla cell growth promoting action in the sample. […] Thereafter, the Student's t-test (t-test) was conducted to evaluate significance. […] In Tables 1 and 2, samples with “++” were determined to have a significance in the hair papilla cell growth promoting action. In samples with “+”, the cell growth rate (%) exceeded 100.
# hairless mice = assay: Test for confirming hair development effect and hair growth effect using hairless mouse (visual amount of head hair); format: in vivo
# Source text: Thirty 8-week-old male and female hairless mice were provided by purchase from Hoshino Laboratory Animals, Inc. The hairless mice were divided into five groups each consisting of six mice with no regard to sex. Specifically, the plurality of groups consist of a normal group given a normal feed (trade name: “Labo MR Stock”, manufactured by Nosan Corporation), a control group given magnesium-deficient specialty feed (trade name: “HR-AD Feed”, manufactured by Nosan Corporation), a first group given a mixed feed obtained by adding Pro-Hyp at a content of 0.3 mass % to the magnesium-deficient specialty feed, a second group given a mixed feed obtained by adding the collagen peptide mixture A at a content of 5 mass % to the magnesium-deficient specialty feed, and a third group given a mixed feed obtained by adding a collagen peptide mixture C of the later-described composition at a content of 2.5 mass % to the magnesium-deficient specialty feed.
# The heads of the hairless mice in the above-described groups were observed immediately after they were reared for 3 weeks to 11 weeks of age under the following conditions: the temperature was 23±2° C., the relative humidity was 55±10%, the lighting cycle was 12 hours, the light period started at 7:00 and ended at 19:00, and the mice were allowed to freely eat. […] At the time of obtaining the hairless mice, their heads had no hair.
# Further, a 2-week-old hairless mouse before starting to lose its hair was obtained from Hoshino Laboratory Animals, Inc., and relative to the amount of head hair of the hairless mouse which is defined as 10, the amount of head hair of each of the 11-week-old hairless mice in each group was visually measured. […] Each of the values in the table represents an average of the amounts of head hair of the six hairless mice in each group.
# [2] = final concentration 0.05 mM, Table 1
# [3] = final concentration 0.5 mM, Table 1
# [4] = final concentration 5 mM, Table 1
# [5] = final concentration 0.05 mM, Table 4 (control test)
# [6] = final concentration 0.5 mM, Table 4 (control test)
# [7] = final concentration 5 mM, Table 4 (control test)
Compound,Hair papilla cell growth promoting action (in words) [1],Growth rate control = 100 ([1]; final concentration 0.05 mM),"Assessment [1, 2]",Growth rate control = 100 ([1]; final concentration 0.5 mM),"Assessment [1, 3]",Growth rate control = 100 ([1]; final concentration 5 mM),"Assessment [1, 4]","Assessment [1, 5]","Assessment [1, 6]","Assessment [1, 7]","Score (amount of head hair, 2-week-old hairless mouse = 10) (hairless mice; First group: 0.3 mass % in magnesium-deficient specialty feed, 3 weeks, 11-week-old hairless mice, average of six)",Effectiveness as hair growing agent (in words) (hairless mice; conclusion from Table 3),"Hair development in the hair of head (FIG. 2 vs FIG. 1) (hairless mice; mixed feed with 0.3 mass % Pro-Hyp, 11-week-old hairless mice, compared with control group)"
leucine-hydroxyproline [LO],had a hair papilla cell growth promoting action,104 ± 6%,"+ (In samples with “+”, the cell growth rate (%) exceeded 100)",105 ± 2%,"+ (In samples with “+”, the cell growth rate (%) exceeded 100)",104 ± 5%,"+ (In samples with “+”, the cell growth rate (%) exceeded 100)",,,,,,
glycine-proline-hydroxyproline [GPO],had a hair papilla cell growth promoting action,126 ± 3%,++,125 ± 4%,++,120 ± 4%,++,,,,,,
glutamic acid-hydroxyproline-glycine [EOG],had a hair papilla cell growth promoting action,126 ± 10%,++,131 ± 1%,++,121 ± 8%,++,,,,,,
"NCC(=O)O.O=C(O)[C@@H]1CCCN1 [GP, glycine-proline]",had a hair papilla cell growth promoting action,105 ± 4%,"+ (In samples with “+”, the cell growth rate (%) exceeded 100)",109 ± 2%,++,114 ± 2%,++,,,,,,
glutamic acid-hydroxyproline [EO],had a hair papilla cell growth promoting action,102 ± 6%,"+ (In samples with “+”, the cell growth rate (%) exceeded 100)",109 ± 4%,"+ (In samples with “+”, the cell growth rate (%) exceeded 100)",,,,,,,,
proline-proline [PP],had a hair papilla cell growth promoting action,116 ± 3%,++,113 ± 6%,++,109 ± 2%,++,,,,,,
"NC(=O)CC[C@H](N)C(=O)O [Gln, glutamine, reference compound]",poor hair papilla cell growth promoting action,92 ± 2%,,94 ± 5%,,100 ± 4%,,−,−,−,,,
proline-hydroxyproline [PO],had a hair papilla cell growth promoting action,126 ± 8%,++,127 ± 3%,++,129 ± 6%,++,,,,8,effective as hair growing agents,hair development occurred in the hair of head
"N=C(N)NCCC[C@H](N)C(=O)O [Arg, arginine, reference compound]",poor hair papilla cell growth promoting action,93 ± 6%,,98 ± 3%,,101 ± 2%,,−,−,−,,,
